Laboratory results: patent publication US6025333A, “Treatment of CNS tumors with metalloprotease inhibitors” (Erziehungsdirektion of the Canton Zurich, priority 1995, dated 2000)
Where two headings read alike, the source gives them in different places. Square brackets hold non-standard residues; d marks the D form. Peptide text beside a SMILES is read from it. * marks the point of attachment. Sta = CC(C)C[C@H](N)[C@@H](O)CC(=O)O; Isovaleryl = CC(C)CC(=O)*; Cbz = O=C(OCc1ccccc1)*

Columns and labels:
[1] = system: C6 cells; assay: C6 cell spreading on PLYS or CNS myelin with protease inhibitors; type: cell-based, rat; conditions: for activity at 300 µM / inhibition at 300 µM: Rattus norvegicus; for activity at 300 µM: C6, 2.5 h; for activity at 300 µM / Spreading on: PLYS (% of control on PLYS) / Spreading on: CNS (% of control on PLYS): 150 minutes; for inhibition at 300 µM: C6; for effect on C6 cell spreading on CNS myelin: Table X
Procedure: Rat C6, mouse NIH 3T3 and B16 cells were cultured in Dulbecco's modified Eagle's medium (DMEM) supplemented with 10% fetal calf serum (FCS), usually to maximally 70-80% confluency. Cells were harvested with a short trypsin treatment (0.1% in Ca^2+ /Mg^2+ -free Hank's medium for 90 seconds) stopped by addition of FCS in excess, collected by centrifugation. Cells were resuspended in either DMEM/FCS or defined serum-free medium (MEM) and used for experiments. Dissociated rat CNS glial cells were prepared starting from optic nerves of 6-7 days old Lewis rats as described in Section 6.1.1, supra and plated into poly-D-lysine (PLYS) coated wells (100 mm^2, 100 μl medium) at a density of 20,000 cells per well. The culture medium was an enriched L15 medium with 5% rat serum, penicillin and streptomycin. C6, 3T3 and B16 cells were added to 2 day old cultures at a concentration of 30,000 cells per well, incubated for two hours and fixed with warm 4% formalin in phosphate buffer. Inhibitory oligodendrocytes were identified by double labelling using the specific antibodies O1 and O4 (see Section 6.1.3, supra).
(§1) Myelin from rat spinal cord (CNS) or sciatic nerve (PNS) purified on a discontinuous sucrose gradient as described in Section 6.1.5., was dried overnight onto PLYS coated wells (20 μg protein/well of 100 mm^2 surface). Unbound membranes were removed by three washes with Ca^2+ /Mg^2+ -free Hank's solution. Myelin coated wells were immediately used in substrate testing assays by the addition of 9,000 cells (C6, 3T3, or B16) per cm^2. Alternatively, we used extracted CNS myelin protein, or SDS-PAGE purified 35 and 250 kD inhibitory proteins reconstituted in liposomes (see Section 7.1.5, supra). Experiments were scored at different time points using a phase contrast microscope equipped with a photocamera. Quantifications were done using a surface integration program; three arbitrary fields were photographed for each well at a magnitude of 80×, at least 25 cells per picture were measured. Each point represents the mean of at least 3 wells±SEM. Results are expressed as μ^2 of projected cell surface, or as degree, which was calculated by subtracting from the projected surface value of a spreading cell, the surface value of a completely spheric cell.

[2] = system: 3T3 cells; assay: Treatment of CNS myelin with C6 plasma membranes, then 3T3 spreading and 3H-thymidine incorporation; type: cell-based, mouse; conditions: blockers added to C6 plasma membranes
Procedure: as §1
C6 cells grown to 80% confluency were washed twice with Hank's medium, and harvested in 20 ml 8.5% sucrose, 50 mM NaCl, 10 mM Tris buffer, pH 7.4, using a rubber policeman. After mechanical homogenization through a series of needles of decreasing size, a low purity plasma membrane fraction was obtained by centrifugation (5 minutes at 3000× g, 10 minutes at 8000× g, and then 2 hours at 100,000× g). A higher purity fraction was isolated by loading the material on a discontinuous sucrose gradient, containing 50 mM NaCl, 10 mM Tris, pH 7.4 (Quigley, 1976, J. Cell Biol. 71: 472-486). 20-40% sucrose interphase (C6 plasma membranes fraction) and 40-60% sucrose interphase (C6 mitochondrial fraction) were collected, washed in Hank's medium and resuspended in MEM.
CNS myelin coated PLYS wells were prepared as described in the previous section, but instead of being immediately tested as substrate, they were first incubated with 50 μl of C6 plasma membranes (containing 0.8 mg protein/ml MEM) at 37° for 30 minutes. Dishes were then rinsed twice with Hank's medium and immediately used as substrates for 3T3 cells. In some experiments, protease blockers were added to the membranes using 10 times concentrated solutions.

[3] = inhibitor 0.3 mM, CNS myelin, read-out: Spreading on: CNS (% of control on PLYS)
[4] = inhibitor 0.3 mM, PLYS value minus CNS myelin value
[5] = inhibitor 1.0 mM, PLYS value minus CNS myelin value

Molecule: CC(C)C[C@H](NP(=O)(O)O[C@@H]1O[C@@H](C)[C@H](O)[C@@H](O)[C@H]1O)C(=O)N[C@@H](Cc1c[nH]c2ccccc12)C(=O)O [phosphoramidon]
- activity at 300 µM [1, 3]: 91%
- inhibition at 300 µM [1, 4]: 9%
- effect on C6 cell spreading on CNS myelin [1]: did not impair C6 cell spreading

Molecule: carbobenzoxy-glycine-phenylalanine-amide [cbz-gly-phe-NH2]
- inhibition of C6 cell spreading on CNS myelin [1]: 55%
- Spreading on: PLYS (% of control on PLYS) ([1]; inhibitor 1.0 mM): 100 % of control on PLYS
- Spreading on: CNS (% of control on PLYS) ([1]; inhibitor 1.0 mM, CNS myelin): 45 % of control on PLYS
- Inhibition on CNS (%) [1, 5]: 55%
- effect on the C6 plasma membrane effect (neutralization of CNS myelin inhibitory activity) [2]: completely blocked

Molecule: CC(C)C[C@H](NC(=O)[C@@H](O)[C@H](N)Cc1ccccc1)C(=O)O [bestatine]
- effect on C6 cell spreading on CNS myelin [1]: did not impair C6 cell spreading
- Inhibition on CNS (%) ([1]; inhibitor 0.1 mM): 0%
- Spreading on: CNS (% of control on PLYS) ([1]; inhibitor 0.1 mM, CNS myelin): 104 % of control on PLYS

Molecule: NC(=O)CNC(=O)CNC(=O)OCc1ccccc1 [cbz-gly-gly-NH2] (Cbz-Gly-Gly-NH2)
- Spreading on: CNS (% of control on PLYS) ([1]; inhibitor 1.0 mM, CNS myelin): 99 % of control on PLYS
- Inhibition on CNS (%) [1, 5]: 1%

Molecule: O=S(=O)(F)Cc1ccccc1 [PMSF, Phenyl methyl sulfonyl fluoride]
- Spreading on: PLYS (% of control on PLYS) ([1]; inhibitor 4.0 mM): 100 % of control on PLYS
- Spreading on: CNS (% of control on PLYS) ([1]; inhibitor 4.0 mM, CNS myelin): 94 % of control on PLYS
- Inhibition on CNS (%) ([1]; inhibitor 4.0 mM, PLYS value minus CNS myelin value): 6%

Molecule: CC(C)CC(=O)N[C@H](C(=O)N[C@H](C(=O)N[C@@H](CC(C)C)[C@@H](O)CC(=O)N[C@@H](C)C(=O)N[C@@H](CC(C)C)[C@@H](O)CC(=O)O)C(C)C)C(C)C [pepstatine] (Isovaleryl-VV[Sta]A[Sta]-OH)
- activity at 300 µM ([1]; inhibitor 0.3 mM, read-out: Spreading on: PLYS (% of control on PLYS)): 98%
- activity at 300 µM [1, 3]: 95%
- inhibition at 300 µM [1, 4]: 3%
- effect on the C6 plasma membrane effect (neutralization of CNS myelin inhibitory activity) [2]: did not inhibit this effect

Molecule: CC(C)C[C@H](NC(=O)[C@H](Cc1ccccc1)NCC(=O)O)C(=O)O [cm-phe-leu, Carboxymethyl-phe-leu]
- effect on C6 cell spreading on CNS myelin [1]: did not inhibit C6 cell spreading
- Spreading on: PLYS (% of control on PLYS) ([1]; inhibitor 0.5 mM): 95 % of control on PLYS
- Spreading on: CNS (% of control on PLYS) ([1]; inhibitor 0.5 mM, CNS myelin): 92 % of control on PLYS
- Inhibition on CNS (%) ([1]; inhibitor 0.5 mM, PLYS value minus CNS myelin value): 3%

Molecule: CC(=O)N[C@@H](CC(C)C)C(=O)N[C@@H](CC(C)C)C(=O)N[C@H](C=O)CCCNC(=N)N [leupeptine]
- Spreading on: PLYS (% of control on PLYS) ([1]; inhibitor 0.3 mM): 91 % of control on PLYS
- Spreading on: CNS (% of control on PLYS) ([1]; inhibitor 0.3 mM, CNS myelin): 83 % of control on PLYS
- Inhibition on CNS (%) [1, 4]: 8%
- effect on the C6 plasma membrane effect (neutralization of CNS myelin inhibitory activity) [2]: did not inhibit this effect

B1: 2-macroglobulin: general protease inhibitor (protein, UniProt P01023 24-1474, looked up)
Alpha-2-macroglobulin: SVSGKPQYMVLVPSLLHTETTEKGCVLLSYLNETVTVSASLESVRGNRSLFTDLEAENDVLHCVAFAVPKSSSNEEVMFLTVQVKGPTQEFKKRTTVMVKNEDSLVFVQTDKSIYKPGQTVKFRVVSMDENFHPLNELIPLVYIQDPKGNRIAQWQSFQLEGGLKQFSFPLSSEPFQGSYKVVVQKKSGGRTEHPFTVEEFVLPKFEVQVTVPKIITILEEEMNVSVCGLYTYGKPVPGHVTVSICRKYSDASDCHGEDSQAFCEKFSGQLNSHGCFYQQVKTKVFQLKRKEYEMKLHTEAQIQEEGTVVELTGRQSSEITRTITKLSFVKVDSHFRQGIPFFGQVRLVDGKGVPIPNKVIFIRGNEANYYSNATTDEHGLVQFSINTTNVMGTSLTVRVNYKDRSPCYGYQWVSEEHEEAHHTAYLVFSPSKSFVHLEPMSHELPCGHTQTVQAHYILNGGTLLGLKKLSFYYLIMAKGGIVRTGTHGLLVKQEDMKGHFSISIPVKSDIAPVARLLIYAVLPTGDVIGDSAKYDVENCLANKVDLSFSPSQSLPASHAHLRVTAAPQSVCALRAVDQSVLLMKPDAELSASSVYNLLPEKDLTGFPGPLNDQDNEDCINRHNVYINGITYTPVSSTNEKDMYSFLEDMGLKAFTNSKIRKPKMCPQLQQYEMHGPEGLRVGFYESDVMGRGHARLVHVEEPHTETVRKYFPETWIWDLVVVNSAGVAEVGVTVPDTITEWKAGAFCLSEDAGLGISSTASLRAFQPFFVELTMPYSVIRGEAFTLKATVLNYLPKCIRVSVQLEASPAFLAVPVEKEQAPHCICANGRQTVSWAVTPKSLGNVNFTVSAEALESQELCGTEVPSVPEHGRKDTVIKPLLVEPEGLEKETTFNSLLCPSGGEVSEELSLKLPPNVVEESARASVSVLGDILGSAMQNTQNLLQMPYGCGEQNMVLFAPNIYVLDYLNETQQLTPEIKSKAIGYLNTGYQRQLNYKHYDGSYSTFGERYGRNQGNTWLTAFVLKTFAQARAYIFIDEAHITQALIWLSQRQKDNGCFRSSGSLLNNAIKGGVEDEVTLSAYITIALLEIPLTVTHPVVRNALFCLESAWKTAQEGDHGSHVYTKALLAYAFALAGNQDKRKEVLKSLNEEAVKKDNSVHWERPQKPKAPVGHFYEPQAPSAEVEMTSYVLLAYLTAQPAPTSEDLTSATNIVKWITKQQNAQGGFSSTQDTVVALHALSKYGAATFTRTGKAAQVTIQSSGTFSSKFQVDNNNRLLLQQVSLPELPGEYSMKVTGEGCVYLQTSLKYNILPEKEEFPFALGVQTLPQTCDEPKAHTSFQISLSVSYTGSRSASNMAIVDVKMVSGFIPLKPTVKMLERSNHVSRTEVSSNHVLIYLDKVSNQTLSLFFTVLQDVPVRDLKPAIVKVYDYYETDEFAIAEYNAPCSKDLGNA
- Spreading on: PLYS (% of control on PLYS) ([1]; inhibitor 3.0 μM): 70 % of control on PLYS
- Spreading on: CNS (% of control on PLYS) ([1]; inhibitor 3.0 μM, CNS myelin): 52 % of control on PLYS
- Inhibition on CNS (%) ([1]; inhibitor 3.0 μM, PLYS value minus CNS myelin value): 18%
